This is an account of results in US20070082055A1, “Stable micronized candesartan cilexetil and methods for preparing thereof” (priority 2005, published 2007).

Several values for one entry are separate records, joined by “and”; a condition that tells them apart may be missing. Identical values can stand only once. Like-named read-outs stand apart in the source and are kept apart here.

For series [1] the following is noted: cited from earlier work.
For series [2] the following is noted: for Desethyl-CNS: as obtained.
[3] abbreviates: Table 3, after 2 weeks at 55° C.
Where [4] appears, read: after maintaining for 2 weeks (oven at 55° C.).

For `CCOc1nc2cccc(C(=O)OC(C)OC(=O)OC3CCCCC3)c2n1Cc1ccc(-c2ccccc2-c2nnn[nH]2)cc1` (racemic) [Candesartan cilexetil, (±)-1-[[(cyclohexyloxy)carbonyl]oxy]ethyl-2-ethoxy-1-[[2′-(1H-tetrazol-5-yl)[1,1 ′biphenyl]-4-yl]methyl]-1H-benzimidazole-7-carboxylate], the solubility in methanol entry in series [1] (methanol) is recorded as “sparingly soluble”. Further, the solubility in water result in series [1] (water) is listed as “sparingly soluble”. The CNS-desethyl in series [2] (time of slurry 2 hr, 2 weeks) is 0.07 w/w %; in series [2] (time of slurry 2 hr, T = 0), 0.03 w/w %; in series [2] (time of slurry 20 hr, 2 weeks) it was 0.03 w/w %; in series [2] (time of slurry 20 hr, T = 0) it was “LTDL (LTDL means less than detection limit)”.
As for `CCOc1nc2cccc(C(=O)OC(C)OC(=O)OC3CCCCC3)c2n1Cc1ccc(-c2ccccc2-c2nnn[nH]2)cc1` (centres unmarked) [Fine particle size, candesartan cilexetil], in series [2] (2 weeks, HPLC), the “2-N-ethyl CNS” value is 0.09 w/w % and 0.29 w/w %. Further, the CNS desethyl was 0.14 w/w % and 0.41 w/w % in series [2] (2 weeks, HPLC); 0.04 w/w % and 0.24 w/w % in series [2] (T = 0, HPLC).
As for `CCOc1nc2cccc(C(=O)OC(C)OC(=O)OC3CCCCC3)c2n1Cc1ccc(-c2ccccc2-c2nnn[nH]2)cc1` (centres unmarked) [Product B, candesartan cilexetil], in series [2] (setting [3]), the “1-N-ethyl CNS” value is given as “LTDL (LTDL means less than detection limit)”, the “2-N-ethyl CNS” value came out at 0.03 w/w % and the CNS desethyl was determined as 0.05 w/w %.
With `CCOc1nc2cccc(C(=O)OC(C)OC(=O)OC3CCCCC3)c2n1Cc1ccc(-c2ccccc2-c2nnn[nH]2)cc1` (centres unmarked) [Product, candesartan cilexetil], in series [2] (Table 3, before storage), the “1-N-ethyl CNS” value is “LTDL (LTDL means less than detection limit)”, the “2-N-ethyl CNS” value is recorded as 0.03 w/w % and the CNS desethyl was 0.05 w/w %. The “level of desethyl-CNS” value in series [2] (before storage) was 0.05 % w/w by HPLC.
Regarding `CCOc1nc2cccc(C(=O)OC(C)OC(=O)OC3CCCCC3)c2n1Cc1ccc(-c2ccccc2-c2nnn[nH]2)cc1` (centres unmarked) [Sample 1, candesartan cilexetil], in series [2] (Table 3, before storage), the “1-N-ethyl CNS” value is “LTDL (LTDL means less than detection limit)”, the “2-N-ethyl CNS” value is given as “LTDL (LTDL means less than detection limit)” and the CNS desethyl is 0.04 w/w %.
In the case of `CCOc1nc2cccc(C(=O)OC(C)OC(=O)OC3CCCCC3)c2n1Cc1ccc(-c2ccccc2-c2nnn[nH]2)cc1` (centres unmarked) [Sample 1B, candesartan cilexetil], in series [2] (setting [3]), the “1-N-ethyl CNS” value is on record as 0.04 w/w %, the “2-N-ethyl CNS” value came out at 0.15 w/w % and the CNS desethyl was 0.20 w/w %.
On to `CCOc1nc2cccc(C(=O)OC(C)OC(=O)OC3CCCCC3)c2n1Cc1ccc(-c2ccccc2-c2nnn[nH]2)cc1` (centres unmarked) [Slurried fine particle size sample, candesartan cilexetil], for which the CNS desethyl is 0.10 w/w % and 0.06 w/w % in series [2] (2 weeks, HPLC); 0.08 w/w % and 0.03 w/w % in series [2] (T = 0, HPLC).
On to `CCOc1nc2cccc(C(=O)OC(C)OC(=O)OC3CCCCC3)c2n1Cc1ccc(-c2ccccc2-c2nnn[nH]2)cc1` (centres unmarked) [candesartan cilexetil Form I, candesartan cilexetil], for which the “level of desethyl-CNS” value in series [2] (setting [4]) amounted to 0.07 % w/w by HPLC. The molecule further returned a Desethyl-CNS in series [2] (before storage) of 0.03 % by area HPLC.
Take `CCOc1nc2cccc(C(=O)OC(C)OC(=O)OC3CCCCC3)c2n1Cc1ccc(-c2ccccc2-c2nnn[nH]2)cc1` (centres unmarked) [candesartan cilexetil]: the CNS-desethyl in series [2] (fine particle size, time of slurry 3 hr, 2 weeks) was found to be 0.10 w/w %; in series [2] (fine particle size, time of slurry 3 hr, T = 0), 0.07 w/w %; in series [2] (fine particle size, time of slurry 6 hr, 2 weeks) it was 0.07 w/w %; in series [2] (fine particle size, time of slurry 6 hr, T = 0) it was 0.06 w/w %; in series [2] (fine particle size, time of slurry 9 hr, 2 weeks), 0.06 w/w %; in series [2] (fine particle size, time of slurry 9 hr, T = 0), 0.05 w/w %. Moreover, the CNS-desethyl stood at 0.06 w/w % in series [2] (fine particle size, time of slurry 13 hr, 2 weeks); 0.05 w/w % in series [2] (fine particle size, time of slurry 13 hr, T = 0); 0.05 w/w % in series [2] (fine particle size, time of slurry 23 hr, 2 weeks); 0.04 w/w % in series [2] (fine particle size, time of slurry 23 hr, T = 0).
With `CCOc1nc2cccc(C(=O)OC(C)OC(=O)OC3CCCCC3)c2n1Cc1ccc(-c2ccccc2-c2nnn[nH]2)cc1` (centres unmarked) [micronized CNS-Cryst, candesartan cilexetil], the “level of desethyl-CNS” value in series [2] (setting [4]) came to 0.41 % w/w by HPLC; in series [2] (before storage), 0.24 % w/w by HPLC.
Taken in the same sequence, the figures for `CCOc1nc2cccc(C(=O)OC(C)OC(=O)OC3CCCCC3)c2n1Cc1ccc(-c2ccccc2-c2nnn[nH]2)cc1` (centres unmarked) [micronized material, candesartan cilexetil] were 0.14 % w/w by HPLC and 0.04 % w/w by HPLC.
Regarding `CCOc1nc2cccc(C(=O)OC(C)OC(=O)OC3CCCCC3)c2n1Cc1ccc(-c2ccccc2-c2nnn[nH]2)cc1` (centres unmarked) [stable candesartan cilexetil Form I, candesartan cilexetil], the “level of desethyl-CNS” value in series [2] (after maintaining for 2 weeks (oven at 55° C.), listed as obtained product) amounted to 0.10 % w/w by HPLC. The molecule also displayed a Desethyl-CNS in series [2] (before storage) of 0.08%.
`CCOc1nc2cccc(C(=O)OC(C)OC(=O)OC3CCCCC3)c2n1Cc1ccc(-c2ccccc2-c2nnn[nH]2)cc1` (centres unmarked) [stable micronized candesartan Form I, candesartan cilexetil] displayed a desethyl-CNS level in series [2] (after maintaining for 2 weeks) of 0.06 % area by HPLC. Besides, the “level of desethyl-CNS” value in series [2] (before storage) is reported as 0.03 % w/w by HPLC.
